What is called efflux ratio is the permeability from basolateral to apical divided by that in the opposite direction, in the common usage. A word on the Papp A→B: it is how fast a substance crosses the layer from the apical side. Lower therefore signals slow passage. For orientation: Papp B→A means the apparent permeability from the basolateral to the apical side of a cell layer.

Structures are written as SMILES. Where two headings read alike, the source gives them in different places.

Series [1] has as its target T1, P-gp (MDR1) (Homo sapiens, UniProt P08183). Description: Bi-directional transport (monolayer efflux) study across MDCK-MDR1 cell monolayers. The settings on record: human, HPS conditions; for Papp A→B / Papp B→A: recovery-corrected mean ± SD, n = 3; for recovery: MDCK-MDR1 cell monolayers.
Procedure: (§1) As such, for this study, MDCK-II-MDR1 cells transfected with human MDR1 for P-gp expression were obtained from The Netherlands Cancer Institute (Amsterdam, The Netherlands).
(§2) For transport experiments, MDCK-MDR1 cells were used between passages 20 and 40. Cells were seeded onto 12-well PET inserts (CellQART, Northeim, Germany; pore size: 0.4 µm; filter thickness: 11.5 µm) at a density of 1.5 × 10^5 cells/insert. Inserts with a high porosity of 100 × 10^6 pores/cm ​^2 or low porosity of 2 × 10 ​^6 pores/cm ​^2 were used. After seeding, cells were maintained as described in Section 3.1.2 for 4 days to ensure confluent cell monolayer formation. The cell medium was exchanged one day before the transport experiments were performed. Prior to the transport experiments, the inserts were washed with Hank’s balanced salt solution (HBSS) to remove residual DMEM. […] For all other inserts, no inhibitor was used.
(§3) The apical-to-basolateral ( A→B direction) as well as the basolateral-to-apical ( B→A direction) transport rates of the test compounds were determined in duplicate with varying stirring and filter conditions. The three conditions tested were as follows: high-porosity filters, stirred (HPS); high-porosity filters, unstirred (HPU); and low-porosity filters, stirred (LPS). The transport buffer was HBSS with 25 mM HEPES at pH 7.4. Stock solutions were prepared in the transport buffer, and all solutions were pre-warmed to 37 °C. […] The pHs of the buffer and stock solutions prior to the experiment as well as the pHs of all samples after experiment completion were controlled with a rapid pH automated pH meter (Hudson Robotics, Inc., Springfield, NJ, USA). The pHs remained within a range of ±0.15.
(§4) Inserts were used in 12-well plates (TPP Techno Plastic Products AG, Trasadingen, Switzerland), the basolateral compartment volume was 1.6 mL, and the apical compartment volume was 0.5 mL. The transport experiments were initiated by replacing the HBSS with transport buffer and the test compound solution.
(§5) For measurement of transport in the A→B direction: Inserts were placed in 12-well plates containing transport buffer in the basolateral compartment, after which, the test compound solution was added to the apical compartment. At every sampling step, each insert was placed into a new well containing fresh, warmed assay buffer, and the old buffer was sampled. Sampling occurred at four consistent time intervals.
(§6) For measurement of transport in the B→A direction: Inserts were placed in 12-well plates containing the test compound solution in the basolateral compartment (donor), after which, transport buffer was added to the apical compartment. At each sampling time step, 300 μ L was sampled from the apical compartment (the maximum amount that could be removed without disturbing the cell layer) and replaced with an equal volume of warmed, fresh transport buffer. Sampling occurred at four consistent time intervals. Time intervals for sampling were determined uniquely for each compound and direction measured to ensure that sink conditions would be maintained throughout the experiment.
For series [2], the target named is T2, human P-gp (Homo sapiens, UniProt P08183). The description is as above. The following applies: for ER: HPS conditions.
T2 sequence (P08183 whole entry): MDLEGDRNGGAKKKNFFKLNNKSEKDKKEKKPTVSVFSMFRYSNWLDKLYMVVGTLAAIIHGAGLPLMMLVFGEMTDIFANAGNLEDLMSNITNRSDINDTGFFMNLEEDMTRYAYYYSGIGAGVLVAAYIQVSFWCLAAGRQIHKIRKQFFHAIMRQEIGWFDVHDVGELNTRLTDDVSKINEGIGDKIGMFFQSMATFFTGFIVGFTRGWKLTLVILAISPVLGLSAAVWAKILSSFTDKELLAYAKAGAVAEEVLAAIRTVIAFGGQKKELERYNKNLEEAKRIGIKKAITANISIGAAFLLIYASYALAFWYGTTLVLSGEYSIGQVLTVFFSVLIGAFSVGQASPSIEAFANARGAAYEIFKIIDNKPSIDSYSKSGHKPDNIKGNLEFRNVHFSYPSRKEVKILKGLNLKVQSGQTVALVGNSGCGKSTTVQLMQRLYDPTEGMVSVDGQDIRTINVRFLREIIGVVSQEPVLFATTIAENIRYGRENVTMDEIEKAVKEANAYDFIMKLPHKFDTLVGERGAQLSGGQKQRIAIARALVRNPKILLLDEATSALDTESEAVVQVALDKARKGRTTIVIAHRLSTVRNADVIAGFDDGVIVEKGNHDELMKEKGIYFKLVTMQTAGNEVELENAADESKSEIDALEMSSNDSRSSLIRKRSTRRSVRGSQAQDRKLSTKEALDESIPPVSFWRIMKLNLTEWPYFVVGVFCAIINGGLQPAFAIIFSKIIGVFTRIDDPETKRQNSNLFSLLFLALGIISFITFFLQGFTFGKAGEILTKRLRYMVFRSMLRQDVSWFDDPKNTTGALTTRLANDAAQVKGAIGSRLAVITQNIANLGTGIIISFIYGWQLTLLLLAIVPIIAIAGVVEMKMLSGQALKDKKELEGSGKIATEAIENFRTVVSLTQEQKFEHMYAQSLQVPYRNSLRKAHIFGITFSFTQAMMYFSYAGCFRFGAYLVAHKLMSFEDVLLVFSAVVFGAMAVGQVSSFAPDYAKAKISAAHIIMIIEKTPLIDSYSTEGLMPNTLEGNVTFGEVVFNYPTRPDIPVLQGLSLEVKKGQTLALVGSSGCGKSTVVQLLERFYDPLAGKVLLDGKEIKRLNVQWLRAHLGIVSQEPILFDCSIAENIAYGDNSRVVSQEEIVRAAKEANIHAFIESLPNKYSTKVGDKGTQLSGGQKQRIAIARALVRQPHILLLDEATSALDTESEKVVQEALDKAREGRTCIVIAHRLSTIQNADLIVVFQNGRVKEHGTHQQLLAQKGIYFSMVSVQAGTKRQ
Procedure: as §1, §2, §3, §4, §5, §6
Series [3] addresses T2, human P-gp. The settings on record: MDCK-MDR1, pH 7.4.
Procedure: as §1, §2, §3, §4, §5, §6
In series [4] the target is T1, P-gp (MDR1). Kind of series: in vitro. The settings on record: for efflux ratio: MDCK-MDR1, pH 7.4, ER (Papp,B→A over Papp,A→B); for efflux ratio / Papp A→B / Papp B→A: pH 7.4 ISO-pH, 12 μM (loperamide 10 μM); for Papp A→B: MDCK-MDR1, pH 7.4, Papp,A→B; for Papp A→B / Papp B→A: recovery-corrected mean ± SD; for Papp B→A: MDCK-MDR1, pH 7.4, Papp,B→A; for recovery: pH 7.4, Recovery, pH 7.4, MDCK-MDR1, 12 μM (loperamide 10 μM).
Procedure: as §1, §2, §3, §4, §5, §6

[5] abbreviates: HPS: high-porosity filter, stirred.
Setting [6] is: HPU: high-porosity filter, unstirred.
The mark [7] stands for this setting: LPS: low-porosity filter, stirred.

T1 sequence (P08183 whole entry): as above

As for `COc1cccc2c1C(=O)c1c(O)c3c(c(O)c1C2=O)C[C@@](O)(C(=O)CO)C[C@@H]3O[C@H]1C[C@H](N)[C@H](O)[C@H](C)O1` [Doxorubicin, doxorubicin], the efflux ratio in series [1] (MDCK-MDR1, pH 6, ER, pHext 6 (ISO-pH)) is 1.6. Also, the Papp A→B in series [1] (MDCK-MDR1, pH 6, Papp,A→B, pHext 6 (ISO-pH)) turned out to be 0.14 ± 0.04 ×10⁻⁶ cm/s; in series [1] (MDCK-MDR1, pH 7, Papp,A→B, pHext 7 (ISO-pH)), 0.12 ± 0.03 ×10⁻⁶ cm/s. The Papp B→A in series [1] (MDCK-MDR1, pH 6, Papp,B→A, pHext 6 (ISO-pH)) stood at 0.23 ± 0.08 ×10⁻⁶ cm/s; in series [1] (MDCK-MDR1, pH 7, Papp,B→A, pHext 7 (ISO-pH)), 0.78 ± 0.36 ×10⁻⁶ cm/s. In addition, the recovery in series [1] (pH 6, Recovery, pHext 6 (ISO-pH)) lay in the range of 89.3 to 95.3%; in series [1] (pH 7, Recovery, pHext 7 (ISO-pH)), 87.8 to 93.1%. Further, the ER entry is “one” in series [2] (pHext 6 (ISO-pH)); 6.5 in series [2] (pHext 7 (ISO-pH)); above 2 in series [2] (pHext 7 (ISO-pH), listed as doxorubicin).
Regarding `CN(C)C(=O)C(CCN1CCC(O)(c2ccc(Cl)cc2)CC1)(c1ccccc1)c1ccccc1` [Loperamide, loperamide], the “mean ERs” value in series [3] is listed as “greater than two”. In series [4] (setting [5]), the efflux ratio worked out at 2.7 ± 0.73, the Papp A→B came out at 46.7 ± 5.03 ×10⁻⁶ cm/s, the Papp B→A turned out to be 126 ± 27.8 ×10⁻⁶ cm/s and the recovery is 75 to 88.1%. Further, in series [4] (setting [6]), the efflux ratio amounted to 2.8 ± 0.87, the Papp A→B was 9.8 ± 2.84 ×10⁻⁶ cm/s, the Papp B→A is 29.2 ± 3.31 ×10⁻⁶ cm/s and the recovery was 62.3 to 81.3%. In addition, in series [4] (setting [7]), the efflux ratio was 3.2 ± 0.91, the Papp A→B stood at 5.65 ± 0.42 ×10⁻⁶ cm/s, the Papp B→A stood at 15.9 ± 4.24 ×10⁻⁶ cm/s and the recovery was in the range of 69.2 to 86.1%.
For the compound `C=C[C@H]1C[N@@]2CC[C@H]1C[C@@H]2[C@@H](O)c1ccnc2ccc(OC)cc12` [Quinidine, quinidine], the “mean ERs” value in series [2] (over the conditions HPS, LPS, HPU, pH 7.4) was “greater than two”.
